Where two headings read alike, the source gives them in different places. Blank lines part the entries; values can stand above or below the molecule they belong to.
Tests used:
A549 cell line [1] = experiment: cells; assay type: cell-based; settings: Homo sapiens
Description: A549 cells were obtained from ATCC and cultured with culture medium (D0819 DMEM 10% FBS 1% penicillin/streptomycin) at 37°C. Cell viability was measured using an MTT assay. MTT ((3-[4,5-dimethylthiazol-2-yl]-2,5-diphenyltetrazolium bromide) (1x), at 5 mg/ml) was added for 1 hour and formazan was dissolved with DMSO (dimethyl sulfoxide). Optical density at a wavelength of 570 nm was measured using a microplate reader (Hidex plate reader) to quantify the relative number of living cells. To determine treatment concentrations, cells were treated with serially diluted drugs until a concentration that reduced cell viability by around 50%. […] Cells were treated with the drugs at their designated concentrations for two days.

A549 cell line [2] = experiment: LDH cytotoxicity assay; assay type: cell-based
Description: 30 minutes after LDH (Abcam Cat# ab65393) administration, optical density at a wavelength of 450 nm was measured using a microplate reader (Hidex plate reader) to quantify the relative LDH activity which was released into the media via the drug's cytotoxic effect.

TTK = experiment: Western blot of TTK protein expression in A549 cells after drug treatment; assay type: cell-based; settings: A549, 10µM
Description: PVDF membranes were blocked for 30 minutes with 5% skim milk and TBST (Tris Buffered Saline with 0.2% Tween 20) and then treated overnight on a shaker plate at 4°C with 0.5% skim milk with TBST and MCM6 (Abcam Cat# ab201683) and TTK (Abcam Cat# ab187520) primary antibodies diluted 1:20000 and for 30 minutes with TUBA1A (Abeam Cat# ab7291, RRID:AB_2241126) primary antibodies diluted 1:20000. The solution was then replaced with a new solution of 0.5% skim milk with TBST and anti-rabbit (Abeam Cat# ab6721, RRID:AB_955447) or anti-mouse (Abeam Cat# ab6789, RRID:AB_955439) secondary antibodies diluted 1:20000 for 30 minutes.

MCM6 = experiment: Western blot of MCM6 protein expression in A549 cells after drug treatment
[3] = A549, 48 h, read-out: cell viability
[4] = A549, dose dependent MTT assay, read-out: concentration which could reduce the cell viability by 50%

- IC50 (A549 cell line [1]; [4]): 10 µM
SMILES: OCCCNc1cc(-c2ccnc(Nc3cccc(Cl)c3)n2)ccn1 [CGP-60474]
- viability at 10 µM (A549 cell line [1]; [3]): 29.1%
- necrotic cell death (A549 cell line [2]; A549, 10µM, lysis positive control 100%, untreated 0%): did not induce necrotic cell death
- effect on TTK protein level (TTK): showed an inhibitory effect on TTK
- protein level of MCM6 (MCM6; A549, 10µM): significantly reduced

SMILES: O=C1c2c(O)ccc(O)c2C(=O)c2c(NCCNCCO)ccc(NCCNCCO)c21 [mitoxantrone]
- viability at 0.1 µM (A549 cell line [1]; [3]): 52.2%
- IC50 (A549 cell line [1]; [4]): 0.1 µM
- cytotoxicity at 0.1 µM (A549 cell line [2]; Homo sapiens, A549, 48 h, read-out: necrotic cell death): 3.45%
- protein level of MCM6 (MCM6; A549, 100nM): significantly reduced

SMILES: COC[C@H]1OC(=O)c2coc3c2[C@@]1(C)C1=C(C3=O)[C@@H]2CCC(=O)[C@@]2(C)C[C@H]1OC(C)=O [wortmannin]
- viability at 10 µM (A549 cell line [1]; [3]): 62.3%
- IC50 (A549 cell line [1]; A549, read-out: concentration which could reduce the cell viability by 50%): 10 µM
- necrotic cell death (A549 cell line [2]): did not induce necrotic cell death

Reference: EP4427750A1, “TREATMENT OF LUNG ADENOCARCINOMA” (priority 2023, dated 2024)
